These are literature values, as cited in patent US6472228B2, “Composition and methods for synthesis of novel tracers for detecting amphetamine and methamphetamine in samples” (Lifepoint, Inc., priority 2000, dated 2002).

For this series the following is noted: GC/MASS.

As to `CN[C@@H](C)Cc1ccccc1` [methamphetamine], the “detectable in saliva samples after the last dose” value was “up to 2 days”.
